According to US20080098491A1, “MOUSE MODELS TO STUDY CACHEXIA” (ZOLTAN LABORATORIES LLC, priority 2006, published 2008):

Tested on: MXT mouse mammary tumor
Assay: Cisplatin-treated MXT mouse mammary tumor model, CCDTHT (Example 10)
Assay type: in vivo
Settings: every second day from day 7: cisplatin 3-mg/kg i.p., CCDTHT 4.6-mg/kg s.c., highly purified PALP 14-mg/kg s.c.
Source text: The B16 mouse melanoma and MXT mouse mammary tumors were developed in first generation hybrid BDF1 (C57 B1 female×DBA/2 male) adult female mice kept at specified pathogen free (SPF) hygienic level. These models were chosen for these experiments because these mice have the complete immune system, and both tumors grow very rapidly. To develop the tumors, B16 and MXT tumor tissue fragments of about 0.1-cm^3 were surgically implanted subcutaneously into the intrascapular region to develop the tumors. Each tumor fragment contained about 1-1.5×10^6 cells. The animals were kept in macrolon cages on ventilated rack at 22-24° C. (50-60% humidity) with lighting regimen of 12/12 h light/dark. The animals had free access to tap water and were fed with sterilized standard diet (Charles River VRF1, Germany) ad libitum. The animals were taken care of according to the “Guiding Principle for the care and use of Animals” based upon the Helsinki declaration and they were approved by the local ethical committee.
In case of both tumor models the tumor size was usually in the range of 0.2 to 0.5-g when treatments started 7-11 days after tumor implantation; the mice were selected so that in the same treatment group the difference in tumor size was no greater than 0.1 gram. In some experiments, the test proteins were suspended in physiological saline and injected in 50-μl volume subcutaneously in the vicinity of tumor (within 1-cm of tumor margin). In other experiments, the test proteins were dispersed in Vaselinum cholesteratum and used topically; 150-mg cream was applied on the tumor and the vicinity of tumor area (with about 0.5-cm of the tumor margin). The tumor volume was determined by using calipers; this technique is well known to one having ordinary skill in the art. Tumor volume was calculated according to the generally accepted formula: V=a^2×b×7r/6, where “a” and “b” mean the shortest and longest diameter, respectively, of the measured tumor.
The mouse MXT mammary tumor was developed as described in Example 3. In the first group, animals remained untreated during the whole observation period. In the second group, starting on the 7th day after tumor implantation, mice were administered 3-mg per 1-kg of cisplatin i.p. 9-times every second day. In the third group, starting on the 7th day after tumor implantation, mice were simultaneously administered 3-mg per 1-kg of cisplatin i.p. and 4.6-mg per 1-kg of CCDTHT s.c. In the fourth group, starting on the 7th day after tumor implantation, mice were simultaneously administered 3-mg per 1-kg of cisplatin i.p. as well as 4.6-mg per 1-kg of CCDTHT s.c. and 14-mg per 1-kg of highly purified PALP s.c. Each treatment was performed 9-times on every second day. Each group included 7 animals. The mean values for total weight, tumor weight and body weight (the difference between total and tumor weight) are shown in TABLE 8.

In the case of N.N.[Cl][Pt][Cl] [Cisplatin, cisplatin], the “Body weight (total weight minus tumor weight)” value (day 7 after transplantation) is reported as 21.95 g, the Total weight (day 7 after transplantation) is reported as 22.20 g and the Tumor weight (day 7 after transplantation) is reported as 0.25 g. The “Body weight (total weight minus tumor weight)” value (day 9 after transplantation) was 22.45 g, the Total weight (day 9 after transplantation) was 23.00 g and the Tumor weight (day 9 after transplantation) was 0.55 g. The “Body weight (total weight minus tumor weight)” value (day 11 after transplantation) was 21.75 g, the Total weight (day 11 after transplantation) was 23.10 g and the Tumor weight (day 11 after transplantation) was 1.35 g. For the same compound, the “Body weight (total weight minus tumor weight)” value (day 15 after transplantation) was 20.25 g, the Total weight (day 15 after transplantation) was 22.90 g and the Tumor weight (day 15 after transplantation) was 2.65 g. For the same compound, the “Body weight (total weight minus tumor weight)” value (day 17 after transplantation) was 17.85 g, the Total weight (day 17 after transplantation) was 21.60 g and the Tumor weight (day 17 after transplantation) was 3.75 g. The “Body weight (total weight minus tumor weight)” value (day 21 after transplantation) was 15.95 g, the Total weight (day 21 after transplantation) was 20.60 g and the Tumor weight (day 21 after transplantation) was 4.65 g.
